PMC9595134, “Novel pituitary actions of GnRH in teleost: The link between reproduction and feeding regulation” (Frontiers in Endocrinology, 2022)
Where a SMILES comes first, the peptide text is derived from it. [ ]: non-standard residue; d: D form. pGlu = O=C1CC[C@@H](C(=O)O)N1

Experiments:
[1] = system: grass carp pituitary cells; test: qRT-PCR of anorectic genes in pituitary cells; format: cell-based, grass carp (Ctenopharyngodon idellus)
Method: (§1) The preparation of grass carp pituitary cells was performed as mentioned above. After drug treatment, the total RNA of these cells was isolated by TRIzol reagent and reverse transcribed into cDNA with Hifair™ III 1st Strand cDNA Synthesis Kit. The transcript levels of several anorectic peptides (POMCb, CART2, UTS1, NMBa, NMBb, and Lepr) and reproductive genes (GtHα, LHβ, FSHβ, INHBa, SgII, DRD2) were detected by using an ABI 7500 quantitative real-time PCR (qRT-PCR) system (Biosystems, USA) (information of primers for target genes is listed in Supplementary Table S3 ). In this process, a serial gradient dilution of plasmid DNA of these genes was used as a standard for data calibration. The conditions of qRT-PCR were set to 10 min, 95°C, for pre-degeneration; 15 s, 95°C, for degeneration; 30 s, 55°C–60°C, for annealing; 30 s, 72°C, for extending; and 20 s, 82°C, for signal detection with 40 cycles. Finally, the melt curve obtained through each test was used to verify and check the reliability and specificity of the corresponding qRT-PCR.
(§2) The transcript level was detected using qRT-PCR by ABI 7500 software, while the data calibration of each reaction was performed through standard curves with the dynamic range of 10^5 and correlation coefficient >0.95. The transcript level of β-actin was used as an internal control, and target gene mRNA expression was normalized and calculated as a percentage of the mean value (as “% Ctrl”). Based on merging four to eight replicates (as mean ± SEM), the data were analyzed with a one-way ANOVA to differentiate the significant differences from other treatment experiments. The SPSS Statistics 26.0 software was used to do a Dunnett’s post-hoc test. […] The different letters represent a significant difference at p < 0.05 between groups.
To further verify the functional role of GnRH2 and GnRH3 on feeding regulation, time- and dose-dependent tests were performed to detect the effect of GnRH2 and GnRH3 on anorectic gene (POMCb, CART2, UTS1, NMBa, NMBb, and LEPR) mRNA expression. In the time-course test, the grass carp pituitary cells were incubated by GnRH2 or GnRH3 (1 μM) for 3, 6, 12, and 24 h, respectively. […] In the dose-dependent test, grass carp pituitary cells were incubated by the continuous gradient dilution of GnRH2 or GnRH3 (0.1–1,000 nM) for 24 h.
Figure 9 Regulation of feeding hormone gene mRNA expression by GnRH2 and GnRH3 in grass carp pituitary cells. (A) Time-course experiment of grass carp GnRH2 (1 μM) and GnRH3 (1 μM) on POMCb, CART2, UTS1, NMBa, NMBb, and LEPR mRNA expression in grass carp pituitary cells. (B) Dose dependence of a 24-h treatment with increasing levels of GnRH2 and GnRH3 (0.1–1,000 nM) on POMCb, CART2, UTS1, NMBa, NMBb, and LEPR mRNA expression in grass carp pituitary cells. […]

[2] = system: grass carp pituitary cells; test: qRT-PCR of reproductive hormone genes in pituitary cells; format: cell-based, grass carp (Ctenopharyngodon idellus)
Method: as §1, §2
To further verify the reproductive function of GnRHs, time- and dose-dependent tests were performed to detect GnRH2- or GnRH3-regulated GtHα, LHβ, FSHβ, INHBa, SgII, and DRD2 mRNA expression in grass carp pituitary cells. […] In the dose-dependent test, a continuous gradient dilution of GnRH2 (0.1–1,000 nM) or GnRH3 (0.1–1,000 nM) was incubated with grass carp pituitary cells for 24 h.
Figure 5 Regulation of reproductive hormone gene mRNA expression by GnRH2 and GnRH3 in grass carp pituitary cells. (A) Time-course experiment of grass carp GnRH2 (1 μM) and GnRH3 (1 μM) on GtHα, LHβ, FSHβ, INHBa, SgII, and DRD2 mRNA expression in grass carp pituitary cells. (B) Dose dependence of a 24-h treatment with increasing levels of GnRH2 and GnRH3 (0.1–1,000 nM) on GtHα, LHβ, FSHβ, INHBa, SgII, and DRD2 mRNA expression in grass carp pituitary cells. After drug treatment, the pituitary cells were extracted to total RNA, reversed transcribed, and used for RT-PCR to detect the target genes’ mRNA expression. […] The different letters represent a significant difference at p < 0.05 between groups (ANOVA followed by a Dunnett test).

goldfish [3] = conditions: intracerebroventricular (ICV) injection, ref [39]; cited from earlier work
goldfish [4] = system: goldfish; parameters: method as in PMID 7507838, PMID 8045371; conditions: ref [34], [35], cited from earlier work
pituitary = conditions: teleost; ref [5], [10]; cited from earlier work
Text: Subsequently, GnRH2 had been firstly found in chicken so that this variant was also named as chicken GnRH (cGnRH) ([3]). In addition, the third GnRH variant (GnRH3) was an ubiquitous and unique subtype existing in fish ([3]), which was primitively discovered in salmon so that it was named as salmon GnRH (sGnRH) ([4]). Multiple GnRH variants (two or three forms) are present in all teleosts ([5]), but the receptor selectivity a ...

zebrafish = conditions: intracerebroventricular (ICV) injection, ref [38]; cited from earlier work
[5] = 1 μM, time-dependent, Figure 5A

In the case of `NC(=O)CNC(=O)[C@@H]1CCCN1C(=O)[C@H](Cc1ccc(O)cc1)NC(=O)[C@H](Cc1c[nH]c2ccccc12)NC(=O)CNC(=O)[C@H](Cc1c[nH]cn1)NC(=O)[C@H](CO)NC(=O)[C@H](Cc1c[nH]c2ccccc12)NC(=O)[C@H](Cc1c[nH]cn1)NC(=O)[C@@H]1CCC(=O)N1` [GnRH2] ([pGlu]HWSHGWYPG-NH2), the “effect on POMCb, CART2, UTS1, NMBa, NMBb, and LEPR mRNA expression, time course” value ([1]; 1 μM, 3, 6, 12, and 24 h, time-dependent, Figure 9A) is reported as “significantly induce”, the “effect on POMCb, CART2, UTS1, NMBa, NMBb, and LEPR mRNA expression, dose dependence” value ([1]; 0.1–1,000 nM, 24 h, dose-dependent, Figure 9B) is reported as “significantly induce” and the “effect on DRD2 mRNA expression, time course” value [2, 5] is reported as “inhibit”. The “effect on GtHα, LHβ, FSHβ, INHBa, and SgII mRNA expression, time course” value [2, 5] was “significantly induce”, the “effect on DRD2 mRNA expression, dose test” value ([2]; 0.1–1,000 nM (all treated doses), 24 h, Figure 5B) was “significantly inhibit” and the “effect on GtHα, LHβ, FSHβ, INHBa, and SgII mRNA expression, dose dependence” value ([2]; 0.1–1,000 nM, 24 h, dose-dependent, Figure 5B) was “significantly induce”. The “effect on food intake, goldfish” value (goldfish [3]) was “significantly decrease food intake”, the “LH secretion compared to GnRH3” value (goldfish [4]; sexually mature, pre-spawning fish) was “more robust LH secretion” and the LH-releasing activity (goldfish [4]; sexually regressed animals) was “no effect”. For the same compound, the “effect on LH and FSH secretion in the pituitary” value (pituitary) was “could stimulate” and the “effect on food intake, zebrafish” value (zebrafish) was “significantly decrease food intake”.
